From patent US11214803B2, “Modulators of YAP1 expression” (Ionis Pharmaceuticals, Inc., priority 2019, dated 2022) come the findings set out here.

Strand notation (5' to 3'): a small letter for the sugar, then the base; units joined by * are phosphorothioate-linked, units joined directly phosphodiester-linked; [ ] holds rarer units or linkages, { } end groups; capitals alone tell only the bases. k = constrained ethyl (cEt); [5mC] = 5-methylcytosine; d = 2'-deoxy (DNA)

For the first data set, the system named is Yap1 mRNA. As to the kind of experiment: Antisense inhibition of human Yap1 in A-431 cells by cEt gapmers, single dose (Example 3, RTS36584). The format is cell-based. The note with it: Table 8; A-431 cells, 5,000 cells per well, free uptake, 2,000 nM, approximately 48 hours; RTS36584; normalized to RIBOGREEN; Yap1 mRNA relative to untreated control cells. The essentials:
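Values are % untreated control: Yap1 mRNA by quantitative RT-PCR (RTS36584), normalized to total RNA by RiboGreen. Before RNA isolation, 5,000 A-431 cells per well were exposed ~48 h to 2,000 nM 16-mer cEt gapmer, delivered without transfection reagent.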
For “958383 (antisense k[5mC]*kT*kT*d[5mC]*d[5mC]*dT*d[5mC]*dT*dG*d[5mC]*dG*d[5mC]*dG*k[5mC]*k[5mC]*k[5mC]) [Compound 958383]”, the “YAP1 (% UTC)” value came out at 96 % UTC. As for “958384 (antisense k[5mC]*k[5mC]*kT*dT*d[5mC]*d[5mC]*dT*d[5mC]*dT*dG*d[5mC]*dG*d[5mC]*kG*k[5mC]*k[5mC]) [Compound 958384]”, the “YAP1 (% UTC)” value turned out to be 131 % UTC. In the case of “958387 (antisense kG*kA*kG*dG*d[5mC]*dG*d[5mC]*dG*d[5mC]*dG*d[5mC]*dA*dT*kT*kG*kT) [Compound 958387]”, the “YAP1 (% UTC)” value is 131 % UTC.

The data set is the same for the next values; noted with them: Table 9; A-431 cells, 5,000 cells per well, free uptake, 2,000 nM, approximately 48 hours; RTS36584; normalized to RIBOGREEN; Yap1 mRNA relative to untreated control cells.
In the case of “958761 (antisense kA*kG*kT*d[5mC]*dT*d[5mC]*dA*dA*d[5mC]*dA*dA*d[5mC]*d[5mC]*kT*kT*k[5mC]) [Compound 958761]”, the “YAP1 (% UTC)” value came out at 7 % UTC. With “958631 (antisense kT*kG*k[5mC]*dA*dA*dA*dT*dA*dG*dG*dA*dG*dA*kG*kG*kG) [Compound 958631]”, the “YAP1 (% UTC)” value turned out to be 122 % UTC. Still for that read-out and setting: as for “958706 (antisense kT*k[5mC]*kG*d[5mC]*dA*dT*dG*dG*d[5mC]*d[5mC]*dA*d[5mC]*dT*kG*k[5mC]*k[5mC]) [Compound 958706]”, the figure is 112 % UTC.

Staying with this data set, now noted: Table 10; A-431 cells, 5,000 cells per well, free uptake, 2,000 nM oligonucleotide, approx. 48 hours; primer probe set RTS36584; Yap1 mRNA normalized to RIBOGREEN, percent of untreated control.
For “958507 (kG*kA*kG*d[5mC]*dA*dG*dA*dT*dA*dA*dT*d[5mC]*dG*kA*kG*kA; antisense) [Compound 958507]”, the “YAP1 (% UTC)” value was found to be 6 % UTC. Same read-out and setting: as for “958572 (kA*kT*kT*dA*dT*dA*dG*dG*d[5mC]*dA*d[5mC]*dT*d[5mC]*k[5mC]*kT*kT; antisense) [Compound 958572]”, the figure is 5 % UTC.

The same data set, now with this note: Table 11; A-431 cells, 5,000 cells per well, free uptake, 2,000 nM oligonucleotide, approx. 48 hours; primer probe set RTS36584; Yap1 mRNA normalized to RIBOGREEN, percent of untreated control.
In the case of “958753 (antisense kT*kG*kT*dA*dT*dA*dT*dG*d[5mC]*d[5mC]*dG*dT*dT*k[5mC]*k[5mC]*k[5mC]) [Compound 958753]”, the “YAP1 (% UTC)” value was 4 % UTC. Take “958613 (antisense k[5mC]*k[5mC]*kT*dG*dA*dA*dG*d[5mC]*d[5mC]*dG*dA*dG*dT*kT*k[5mC]*kA) [Compound 958613]”: the “YAP1 (% UTC)” value stood at 15 % UTC.

Regarding “958708 (antisense kA*kT*kG*dT*d[5mC]*dA*dG*dA*dT*dG*dT*d[5mC]*dA*kA*kT*kT) [Compound 958708]”, the “YAP1 (% UTC)” value is 19 % UTC.

Take “958553 (k[5mC]*k[5mC]*kA*dT*dT*dA*dT*dT*dA*d[5mC]*dT*d[5mC]*d[5mC]*kT*kG*kT; antisense) [Compound 958553]”: the “YAP1 (% UTC)” value came to 1 % UTC. For “958513 (kG*k[5mC]*kG*d[5mC]*dT*dA*d[5mC]*d[5mC]*dA*dT*dT*dT*dT*kA*kA*kA; antisense) [Compound 958513]”, the “YAP1 (% UTC)” value came to 104 % UTC.

Still in this data set, the particulars now being: Table 12; A-431 cells, 5,000 cells per well, free uptake, 2,000 nM modified oligonucleotide, approx. 48 hours; RTS36584; normalized to RIBOGREEN; Yap1 mRNA relative to untreated control cells.
Turning to “958539 (kT*k[5mC]*kT*dA*dT*d[5mC]*d[5mC]*dA*dG*dG*dG*dT*d[5mC]*kA*kA*kT; antisense) [Compound 958539]”, the “YAP1 (% UTC)” value is 11 % UTC.

Staying with this data set, now noted: Table 13; A-431 cells, 5,000 cells per well, free uptake, 2,000 nM modified oligonucleotide, approx. 48 hours; RTS36584; normalized to RIBOGREEN; Yap1 mRNA relative to untreated control cells.
On to “958565 (kT*kT*kG*dA*dG*d[5mC]*dA*d[5mC]*dT*dG*dA*dA*dA*kG*kT*kA; antisense) [Compound 958565]”, for which the “YAP1 (% UTC)” value is reported as 4 % UTC. Same read-out and setting: as for “958610 (antisense kA*kG*kG*dT*dA*dA*d[5mC]*dA*dT*dT*dG*dG*dT*kA*k[5mC]*kT) [Compound 958610]”, the figure is 34 % UTC; as for “958440 (antisense kT*kG*k[5mC]*dG*d[5mC]*d[5mC]*d[5mC]*d[5mC]*dG*dG*d[5mC]*dT*d[5mC]*k[5mC]*kA*k[5mC]) [Compound 958440]”, 54 % UTC.

Still in this data set, the particulars now being: Table 26; Yap1 mRNA by 3-10-3 cEt gapmers targeting SEQ ID NO.: 1, and 2; percent of untreated control.
Consider “1076172 (kT*kA*kT*dT*dA*dG*dT*dA*dA*dA*dG*dA*dG*kT*kA*k[5mC]; antisense) [compound 1076172]”, for which the “YAP1 (% UTC)” value is recorded as 98 % UTC.

For the substance “1075884 (antisense kA*kT*kT*dA*dG*dT*dA*dA*dT*dG*dA*d[5mC]*dT*kA*kA*k[5mC]) [compound 1075884]”, the “YAP1 (% UTC)” value was 116 % UTC. On the same count and under the same terms, as for “1074476 (kT*kT*k[5mC]*d[5mC]*dG*dA*d[5mC]*dA*dA*dA*dA*d[5mC]*d[5mC]*kA*kA*k[5mC]; antisense) [compound 1074476]”, the figure is 18 % UTC.

Still in this data set, the particulars now being: Table 27; Yap1 mRNA by 3-10-3 cEt gapmers targeting SEQ ID NO.: 1, and 2; percent of untreated control.
On to “1074701 (antisense kG*kT*kG*dT*dA*dA*dG*dA*d[5mC]*dA*dA*dG*dT*k[5mC]*kT*kT) [compound 1074701]”, for which the “YAP1 (% UTC)” value is given as 17 % UTC. The same measure, in the same setting: for “1075693 (k[5mC]*kA*kT*dT*dA*dA*dA*dA*dG*dT*dT*dG*dG*kG*kT*kT; antisense) [compound 1075693]” the value was 36 % UTC; for “1075565 (kT*kA*kT*dA*dT*dA*dA*d[5mC]*dA*dG*dG*d[5mC]*d[5mC]*kA*k[5mC]*k[5mC]; antisense) [compound 1075565]”, 52 % UTC. Still for that read-out and setting: for “1075853 (kG*kA*kG*d[5mC]*dG*dA*dT*dA*dA*dG*d[5mC]*dT*dG*kT*kA*kT; antisense) [compound 1075853]” the value was 72 % UTC. Turning to “1076205 (kT*kA*kG*dT*dA*dT*dA*dA*dT*dT*d[5mC]*dA*dT*kG*kA*k[5mC]; antisense) [compound 1076205]”, the “YAP1 (% UTC)” value was 51 % UTC.

For the substance “1076429 (k[5mC]*kA*kT*dT*dA*d[5mC]*dA*dA*dG*d[5mC]*dA*dT*dA*kG*kG*k[5mC]; antisense) [compound 1076429]”, the “YAP1 (% UTC)” value came out at 26 % UTC.

The same data set, now with this note: Table 28; Yap1 mRNA as percent of untreated control; 3-10-3 cEt gapmers targeting SEQ ID NO.: 1, and 2.
Regarding “1076206 (k[5mC]*kA*kA*dT*dA*dA*dA*d[5mC]*dT*dT*dA*d[5mC]*d[5mC]*k[5mC]*kT*kT; antisense) [compound 1076206]”, the “YAP1 (% UTC)” value was found to be 55 % UTC. The same measure, in the same setting: for “1075982 (k[5mC]*kA*kT*dG*dA*dA*dA*dG*d[5mC]*dA*dA*dT*dA*kT*k[5mC]*k[5mC]; antisense) [compound 1075982]” the value was 23 % UTC; for “1075150 (kA*kG*k[5mC]*dG*dG*dA*dA*dA*dA*dA*dA*d[5mC]*dA*k[5mC]*k[5mC]*kT; antisense) [compound 1075150]”, 35 % UTC. As to “1074958 (antisense kT*kA*kA*d[5mC]*d[5mC]*d[5mC]*dG*dG*dG*dT*dT*dT*dT*kT*kG*kT) [compound 1074958]”, the “YAP1 (% UTC)” value was found to be 107 % UTC. Same read-out and setting: as for “1074830 (kG*kA*kG*dG*dA*dT*dA*dA*dA*dA*dT*d[5mC]*d[5mC]*kA*k[5mC]*k[5mC]; antisense) [compound 1074830]”, the figure is 89 % UTC; as for “1075502 (k[5mC]*kT*kT*dA*dA*d[5mC]*dA*dT*dG*dA*dT*dT*d[5mC]*kT*kA*kG; antisense) [compound 1075502]”, 61 % UTC.

Staying with this data set, now noted: Table 29; Yap1 mRNA as percent of untreated control; 3-10-3 cEt gapmers targeting SEQ ID NO.: 1, and 2.
On to “1075471 (antisense kA*kG*k[5mC]*d[5mC]*dA*dA*dT*dA*dA*dG*dT*dT*dA*kT*k[5mC]*kA) [compound 1075471]”, for which the “YAP1 (% UTC)” value is given as 55 % UTC.

Staying with this data set, now noted: Table 34; Yap1 mRNA as percent of untreated control; 3-10-3 cEt gapmers targeting SEQ ID NO: 1 and 2; single dose.
Turning to “1076308 (kA*kG*kT*dA*dA*dT*dT*dA*d[5mC]*d[5mC]*dT*d[5mC]*dT*kA*kA*kT; antisense) [compound 1076308]”, the “YAP1 (% UTC)” value stood at 32 % UTC.

In the case of “1074612 (DNA kA*kT*kA*dG*d[5mC]*dT*dT*dA*dT*dA*dT*dT*dG*kA*kA*kG; further chemistry not given here) [compound 1074612]”, the “YAP1 (% UTC)” value was determined as 12 % UTC. On the same count and under the same terms, as for “1074772 (kA*kG*kT*dT*dA*dA*dA*dA*dT*d[5mC]*dT*dT*dA*kT*k[5mC]*k[5mC]; antisense) [compound 1074772]”, the figure is 80 % UTC.

In the case of “1075988 (kA*kA*kT*dT*dA*dA*dG*d[5mC]*dT*dT*d[5mC]*dT*d[5mC]*kT*kA*kG; antisense) [compound 1075988]”, the “YAP1 (% UTC)” value was 90 % UTC. The same measure, in the same setting: for “1074868 (kG*kT*kA*d[5mC]*d[5mC]*dT*dA*dA*d[5mC]*dA*dT*dA*dT*kG*kA*kG; antisense) [compound 1074868]” the value was 74 % UTC; for “1076276 (k[5mC]*kT*kT*dT*dA*dG*dG*dA*dG*dT*d[5mC]*dA*dG*kA*kA*k[5mC]; antisense) [compound 1076276]”, 59 % UTC.

The data set is the same for the next values; noted with them: Table 35; Yap1 mRNA as percent of untreated control; 3-10-3 cEt gapmers targeting SEQ ID NO: 1 and 2; single dose.
Turning to “1074869 (kA*kG*kT*dA*d[5mC]*d[5mC]*dT*dA*dA*d[5mC]*dA*dT*dA*kT*kG*kA; antisense) [compound 1074869]”, the “YAP1 (% UTC)” value is on record as 31 % UTC. “1076245 (k[5mC]*k[5mC]*kT*dA*dA*dA*dA*dA*dA*d[5mC]*dT*dA*dG*kT*kG*kA; antisense) [compound 1076245]”: the “YAP1 (% UTC)” value is reported as 101 % UTC. Same read-out and setting: as for “1075253 (kG*kT*kT*dA*dA*dT*dT*dA*d[5mC]*dG*dA*dT*dT*kA*kG*kA; antisense) [compound 1075253]”, the figure is 20 % UTC; as for “1074261 (antisense k[5mC]*k[5mC]*kG*dA*dG*dT*dT*d[5mC]*dA*dT*d[5mC]*dA*dT*kA*kT*kT) [compound 1074261]”, 19 % UTC.
